Where two headings read alike, the source gives them in different places.
How the values were obtained:
[1] = format: physicochemical; set-up: key to Fibril / Fibril Formation / TEM 2cat / Fibril: 1 = fibrils present; 0 non-fibrillar structures; settings: for Fibril / Fibril Formation: 1 mg/mL, uranyl acetate stain, qualitative
[2] = Turbidity, derived count rate of scattered light; format: physicochemical; settings: for Count Rate / kcps: derived count rate of scattered light at 633 nm, 173°, from zeta-potential measurement, 0.1 mg/mL in 1 mM KCl after 1 d at 1 mg/mL in PBS, turbidity / microscopic aggregation, mean of triplicate; for Zeta Count Rate: peptides with TEM 2cat 0
How it was run: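 One-day room-temperature aggregation at 1 mg/mL in PBS (pH 7.4) preceded measurement; samples then went into 1 mM KCl. Triplicates per sample, two independent experiments averaged.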

[3] = tested on: HIV-1 infection of TZM-bl cells; assay: HIV-1 infectivity enhancement assay, β-galactosidase luminescence; format: cell-based; settings: for Rel-EFC: infection relative to EF-C (QCKIKQIINMWQ = 1); for Log10 Infection Rel EFC: log10 of infection relative to EF-C; for Log Infectivity: Log10 infection relative to EF-C, asymmetric std dev errors; for Log10 Infection Rel EF-C: HIV-1 infection of TZM-bl cells; for Abs. Inf. / RLU s-1: absolute infection rate, peptide 1.3 µM on cells, virus preincubated 10 min with fibrils, read 3 days post infection, mean of triplicate; for Abs. Inf.: β-galactosidase luminescence; for Log10 Inf. rel. to EF-C: log10 of HIV-1 infection of TZM-bl cells relative to EF-C (EF-C = 0); for Log10 of Rel to EFC (Feb2021): Log10 of infection relative to EF-C; for Abs. Infection at 0.26 µM / Infect 1 0.26 µM / Infect 2 0.26 µM / Infect 3 0.26 µM: peptide 0.26 µM; for Abs. Infection at 0.26 µM / Abs. Infection at 1.3 µM: mean of n = 3, Figure 4A; for Infect 1 0.26 µM / Infect 1 .3 µM: replicate 1, absolute infection signal; for Infect 1 0.26 µM / Infect 2 0.26 µM / Infect 3 0.26 µM / Infect 1 .3 µM / Infect 2 1.3µM / Infect 3 1.3 µM: Figure 4A; for Infect 2 0.26 µM / Infect 2 1.3µM: replicate 2, absolute infection signal; for Infect 3 0.26 µM / Infect 3 1.3 µM: replicate 3, absolute infection signal; for Abs. Infection at 1.3 µM / Infect 1 .3 µM / Infect 2 1.3µM / Infect 3 1.3 µM: peptide 1.3 µM
[4] = FigS12 panel A, fibril category by TEM
[5] = TEM, 1 = fibrils present, 0 = non-fibrillar
[6] = TEM, 1 = fibrils present, 0 = non-fibrillar structures
[7] = Log10 of derived count rate of scattered light (turbidity)
[8] = logarithm of count rate in kcps
[9] = turbidity, Log10 of derived count rate of scattered light, Figure 3A source data
[10] = turbidity, log10 of derived count rate of scattered light
[11] = Fig. S7 panel A (plotted against β-sheet content), TZM-bl cells
[12] = Fig. S7 panel B (plotted against CR), rounded to two decimals, TZM-bl cells
[13] = Log10 of infection rate relative to EF-C, Figure 3A source data
[14] = infection rate relative to EF-C, log10, data of Figure 2D
[15] = infection rate relative to EF-C, log10, source data of Figure 2C
[16] = HIV-1 infection relative to EF-C, Fig 23 plot, panels A and B, mean of 3 values
[17] = HIV-1 infection relative to EF-C, Fig 23 plot, single data point, replicate 1
[18] = HIV-1 infection relative to EF-C, Fig 23 plot, single data point, replicate 2
[19] = HIV-1 infection relative to EF-C, Fig 23 plot, single data point, replicate 3
[20] = absolute infection signal, HIV-1 on TZM-bl cells
[21] = n-fold infection vs virus only, relative to that of EF-C, 1.3 µM peptide
[22] = category: fibrils present or non-fibrillar
[23] = Fig S10 panel D, fibril category by TEM
[24] = log10 of derived count rate of scattered light (turbidity)
[25] = absolute HIV-1 infection signal, TZM-bl cells
[26] = second listing, peptides with TEM 2cat 0

Row | Substance | Fibril ([1]; Fig S10 panel E) | TEM 2cat [1, 4] | Fibril / Fibril Formation ([1]; TEM) | Fibril [1, 5] | Fibril [1, 6] | Log10 Count Rate [2, 7] | Count Rate / kcps [2] | Log10 Count Rate [2, 8] | Log10 Count Rate [2, 9] | Rel-EFC ([3]; 1.3 µM peptide) | Log10 Infection Rel EFC ([3]; 1.3 µM peptide) | Log Infectivity [3, 11] | Log Infectivity [3, 12] | Log10 Infection Rel EF-C [3, 13] | Log10 Infection Rel EF-C [3, 14] | Log10 Infection Rel EF-C [3, 15] | TEM 2cat [1, 22] | Log10 of Rel to EFC (Feb2021) ([3]; all peptides of FigS16) | TEM 2cat [1, 23] | Log10 Count Rate [2, 24] | also measured
1 | CKAKAQANM | 0 | 0 | 0 | 0 | 0 | 2.317 | 207 kcps | 2.3 | 2.317 | 0,03 | -1,5 | -1.504 | -1.5 | -1.5 | -1.504 | -1.504 |  |  |  |  | TEM 2cat ([1]; Fig S10 panel D): 0; Fibril ([1]; FigS12 panel B, TEM): 0; Log10 Count Rate [2, 10]: 2.317; Inf. rel. EF-C [3, 16]: 0.01839; Inf. rel. EF-C [3, 17]: 0.01398; Inf. rel. EF-C [3, 18]: 0.02152; Inf. rel. EF-C [3, 19]: 0.01966; Abs. Inf. / RLU s-1 [3]: 430 RLU s-1; Abs. Inf. [3, 20]: 430; Log10 Inf. rel. to EF-C [3]: -1.504; Inf. rel. EF-C [3, 21]: 0.03
2 | QCKFKQFFNMWQ | 1 |  | 1 | 1 | 1 | 4.277 | 18911 kcps |  | 4.277 | 0,01 | -2,18 | -0.6059 | -0.61 | -0.61 | -0.6059 | -0.61 | 1 | -0.61 |  |  | TEM 2cat ([1]; Fig S10 panel D): 1; Log10 Count Rate [2, 10]: 4.277; Abs. Inf. [3, 20]: 30896.66667; Log10 Inf. rel. to EF-C [3]: -0.6059
3 | HHHHKIKIQINMYYYY | 1 |  | 1 | 1 | 1 | 3.753 | 5659 kcps | 3.753 | 3.753 | 1,11 | 0,04 | 0.04454 | 0.04 | 0.04 | 0.04454 | 0.04454 | 1 | 0.04 | 1 | 3.753 | 
4 | QCKAKAQANM | 0 | 0 | 0 | 0 | 0 | 2.31 | 204 kcps | 2.3 | 2.31 | 0,01 | -1,83 | -1.835 | -1.83 | -1.83 | -1.835 | -1.835 |  |  |  |  | TEM 2cat ([1]; Fig S10 panel D): 0; Fibril ([1]; FigS12 panel B, TEM): 0; Log10 Count Rate [2, 10]: 2.31; Inf. rel. EF-C [3, 16]: 0.02465; Inf. rel. EF-C [3, 17]: 0.03504; Inf. rel. EF-C [3, 18]: 0.01727; Inf. rel. EF-C [3, 19]: 0.02164; Abs. Inf. / RLU s-1 [3]: 563 RLU s-1; Abs. Inf. [3, 20]: 563.3; Inf. rel. EF-C [3, 21]: 0.01
5 | CSISIQI | 1 | 1 | 1 | 1 | 1 | 4.01 | 10241 kcps | 4.01 | 4.01 | 0,06 | -1,25 | -1.252 | -1.25 | -1.25 | -1.252 | -1.252 |  |  | 1 | 4.01 | Fibril ([1]; FigS12 panel B, TEM): 1; Abs. Infection at 0.26 µM [3]: 1390; Infect 1 0.26 µM [3]: 1340; Infect 2 0.26 µM [3]: 1160; Infect 3 0.26 µM [3]: 1670; Abs. Infection at 1.3 µM [3]: 3087; Infect 1 .3 µM [3]: 3310; Infect 2 1.3µM [3]: 2600; Infect 3 1.3 µM [3]: 3350
6 | KIKIQIMWNQ |  |  | 1 | 1 | 1 | 3.2757 | 1887 kcps |  | 3.2757 | 0,56 | -0,25 | -0.2495 |  | -0.25 | -0.2495 | -0.2495 | 1 | -0.25 | 1 | 3.2757 | Abs. Inf. [3, 25]: 9147
7 | KIKIQINMWWWQ |  |  | 0 | 0 | 0 | 3.8806 | 7596 kcps |  | 3.8806 | 2,75 | 0,44 | 0.4391 |  | 0.44 | 0.4391 | 0.4391 | 0 | 0.44 | 0 | 3.8806 | Zeta Count Rate [2]: 7596 kcp; Log10 of Rel to EFC (Feb2021) [3, 26]: 0.44; Abs. Inf. [3, 25]: 15400
8 | HHHHKIKIKIKIYYYY |  |  | 0 | 0 | 0 | 4.107 | 12793 kcps | 4.107 | 4.107 | 0,68 | -0,17 | -0.1685 |  | -0.17 | -0.1685 | -0.1685 | 0 | -0.17 | 0 | 4.107 | Zeta Count Rate [2]: 12793 kcp; Log10 of Rel to EFC (Feb2021) [3, 26]: -0.17; Abs. Infection at 0.26 µM [3]: 8963; Infect 1 0.26 µM [3]: 7733.33; Infect 2 0.26 µM [3]: 6433.33; Infect 3 0.26 µM [3]: 12723.33; Abs. Infection at 1.3 µM [3]: 20713.33333; Infect 1 .3 µM [3]: 24723.33; Infect 2 1.3µM [3]: 15203.33; Infect 3 1.3 µM [3]: 22213.33
9 | HHHHKAKAKAKAWWWW |  | 0 | 0 | 0 | 0 | 2.8188 | 659 kcps |  | 2.8188 | 0,09 | -1,05 | -1.048 |  | -1.05 | -1.048 | -1.048 |  |  | 0 | 2.8188 | Fibril ([1]; FigS12 panel B, TEM): 0; Abs. Inf. [3, 25]: 3233
10 | RGDKIKIQINM | 1 |  | 1 | 1 | 1 | 1.7574 | 57 kcps |  | 1.7574 | 0,41 | -0,38 | -0.3838 | -0.38 | -0.38 | -0.3838 | -0.3838 | 1 | -0.38 | 1 | 1.7574 | 

From PMC10447463, “Data-mining unveils structure–property–activity correlation of viral infectivity enhancing self-assembling peptides” (Nature Communications, 2023)
